Measurements reported in publication PMC8719441, “Tonoplast-Localized Theanine Transporter CsCAT2 May Mediate Theanine Storage in the Root of Tea Plants (Camellia sinensis L.)” (Frontiers in Plant Science, 2021).

B1: CsCAT2 (Camellia sinensis) (protein)
chain: MGFRCDSQNDGGACPWTCGFKGLIRRKQVDSIHAKSSGSGHHQLAKELSVFHLIAIGVGSTIGAGVYILVGTVAREHSGPALTFSFLIAGIAAALSAFCYAELASRCPSAGSAYHYSYICVGEGVAWLIGWALILEYTIGGSAVARGISPNLALLFGGADSLPFFLARQHLPGLDIVVDPCAALLVIVVTGLLCVGIKESTLVQSIVTTANVCAMLFVIIAGGYLGFKSGWVGYELPVGYFPFGVDGMLAGAATVFFAYIGFDSVASTAEEVKNPQRDLPLGIAAALSICCMLYMLVSVVIVGLVPYYAMDPDTPISSAFASHGMQWAAYIITAGATTALCSTLMGSMLPQPRILMAMSRDGLLPSIFSDVNKRTQVPIKSTVITGVVAAILAFIMDVEQLAGMVSVGTLLAFTMVAISVLILRYVPPDEVPIPSSLQESIDSVSLRYSTSNDNIEEEKPKDHIGSSTQSTRLLLGKVDRPIAYPLIPKQAATILNDNRRKIAGWTIMFTCVGVLLLTSAASSVGLLPSYFRFGVCGIGVVLILSGLVVLTCIDQDDARHSFGHTGGFICPFVPLLPIACVLINVYLLINLGSATWTRVSIWLLIGVLVYAFYGRTHSSLKDAVYVPATHVEEIYRSSENSLP
notes: no tag mentioned

What follows are molecules tested against T1, CsCAT2 (Camellia sinensis, UniProt A0A2R3U877) (assay: competition with theanine uptake in yeast […]Δ[…]α-CsCAT2, HPLC-UV; growth on sole nitrogen source). Settings: 200 μM theanine, 10 min.
T1 construct: gene CAT2; no tag mentioned
Format: cell-based
In the case of `CC(C)[C@H](N)C(=O)O` [valine], the “% theanine uptake at 2 mM competitor” value is reported as “CsCAT2's capacity to transport theanine was significantly suppressed by these amino acids”. `N[C@@H](CC(=O)O)C(=O)O` [aspartic acid] was tested, and the “% theanine uptake at 2 mM competitor” value was “CsCAT2's capacity to transport theanine was significantly suppressed by these amino acids”. `NC(=O)CC[C@H](N)C(=O)O` [glutamine] was tested, and the “% theanine uptake at 2 mM competitor” value was “CsCAT2's capacity to transport theanine was significantly suppressed by these amino acids”. With `C[C@H](N)C(=O)O` [alanine] the “% theanine uptake at 2 mM competitor” value was “CsCAT2's capacity to transport theanine was significantly suppressed by these amino acids”. `N[C@@H](CCC(=O)O)C(=O)O` [glutamate] was tested, and the “% theanine uptake at 2 mM competitor” value was “CsCAT2's capacity to transport theanine was significantly suppressed by these amino acids”.

These molecules were tested on CCNC(=O)CC[C@H](N)C(=O)O (assay: cells, lysate or membranes). Settings: 0.09375-8 mM theanine, 0-20 min, after 2 h nitrogen starvation; H+-coupled.
Format: cell-based, Camellia sinensis
B1 was tested, and the Km was 450 µM.
